Literature values, collected in patent US6391849B1, “Method and pharmaceutical composition for disrupting lactation in a mammary gland and for treating and preventing mastitis” (Agricultural Research Organization, The Volcani Center, priority 1999, dated 2002).

Tested on: mammary gland
Conditions: EGTA introduced into the mammary gland

Compound: O=C(O)CN(CCOCCOCCN(CC(=O)O)CC(=O)O)CC(=O)O [EGTA]
- TJ integrity: transient loss
- milk yield: transient reduction
